Entries after “also recorded” stand apart in the source; their conditions may differ.
What was measured:
Assay type in all cases: cell-based
[1] = test system: mixed Gram-negative bacteria; assay: Minimum inhibitory concentration testing (biostat candidate screening, Phase 1 and Phase 2; dip slide counts); settings: for Differential Value Scores, Average / Differential Value Scores, Round 1 / Differential Value Scores, Round 2 / Differential Value Scores, Round 3: Phase 1, scale 0-6, 3 = matches DCHA standard; for Differential Value Scores, Average: average of Rounds 1-3; for Differential Value Scores, Round 1 / Differential Value Scores, Round 2 / Differential Value Scores, Round 3: log bacterial counts at 24 and 48 h versus DCHA standard, higher = better; for Biostatic efficacy regarding Gram-negative bacteria compared with the DCHA standard: result in words, 3 wt. % amine in metal working fluid
[2] = test system: Mixed Gram Negative Bacteria; assay: Mycobacterium challenge, four-week re-inoculation test: mixed Gram-negative bacteria count; settings: 5 w/w % dilution
Procedure: (§1) A tap water dilution of the metal working fluid for the Mycobacterium challenge was made to a concentration of 5 w/w %. The sample was tested by Biosan Laboratories, in Warren, Mich., USA, an independent commercial biological laboratory, for biostatic activity against Mycobacterium and against mixed Gram-negative bacteria.
(§2) The test method evaluated the effectiveness of antimicrobial agents in controlling Mycobacterium immunogenum in the presence of high background population of Gram-negative and other bacteria responsible for metal working fluid deterioration. Sample metal working fluids including the biostat of Example 5 and antimicrobial agents were prepared at use concentrations. 1% iron chips were added to the diluted metal working fluid samples. Two microbial populations were then introduced at a 1% level: an undefined Gram-negative bacterial inoculum isolated from a contaminated metal working fluid, and an inoculum containing Mycobacterium immunogenum. The inoculated test metal working fluids were incubated at room temperature (22+2° C.) on an orbital shaker for four weeks. During the four week test period, the metal working fluids were evaluated twice weekly for bacterial and mycobacterial contamination before being re-inoculated with both microbial suspensions at 1% concentrations. This re-inoculation method ensured sufficient viable Gram-negative and Mycobacterium levels throughout the test.

[3] = test system: Mycobacterium immunogenum; assay: Mycobacterium challenge, four-week re-inoculation test: Mycobacterium count; settings: 5 w/w % dilution
Procedure: as §1, §2

[4] = Phase 2, Round 1, dilution 3 %, 48 hours
[5] = Phase 2, Round 2, dilution 4 %, 48 hours
[6] = Phase 2, Round 2, dilution 5 %, 48 hours
[7] = Phase 2, Round 2, dilution 6 %, 48 hours
[8] = Sample 1, Day 0 (Initial Inoculum)
[9] = Sample 2, Day 0 (Initial Inoculum)

## CN(C)CCN(C)CCN(C)C [C14, Pentamethyldiethylene triamine]
[1]; Phase 2, Round 1, dilution 3 %, 24 hours
  Amount of new Gram-negative bacteria colonies: 10^7
[1]; [4]
  Amount of new Gram-negative bacteria colonies: 10^7
[1]; Phase 2, Round 1, dilution 4 %, 24 hours
  Amount of new Gram-negative bacteria colonies: 10^7
[1]; Phase 2, Round 1, dilution 4 %, 48 hours
  Amount of new Gram-negative bacteria colonies: 10^7
[1]; Phase 2, Round 1, dilution 5 %, 24 hours
  Amount of new Gram-negative bacteria colonies: 10^7
[1]; Phase 2, Round 1, dilution 5 %, 48 hours
  Amount of new Gram-negative bacteria colonies: 10^7
[1]; Phase 2, Round 2, dilution 4 %, 24 hours
  Amount of new Gram-negative bacteria colonies: 10^3
[1]; [5]
  Amount of new Gram-negative bacteria colonies: 10^7
[1]; Phase 2, Round 2, dilution 5 %, 24 hours
  Amount of new Gram-negative bacteria colonies: 10^2
[1]; [6]
  Amount of new Gram-negative bacteria colonies: 10^7
[1]; Phase 2, Round 2, dilution 6 %, 24 hours
  Amount of new Gram-negative bacteria colonies: 10^3
[1]; [7]
  Amount of new Gram-negative bacteria colonies: 10^7

## NCCCCCCN [Comparative Example C1, 1,6-diaminohexane]
[1]
  Differential Value Scores, Average: 2.5
  Differential Value Scores, Round 1: 2
  Differential Value Scores, Round 2: 4
  Differential Value Scores, Round 3: 1.5

## CCCCCN [Comparative Example C4, Amylamine]
[1]
  Differential Value Scores, Average: 1.7
  Differential Value Scores, Round 1: 1.5
  Differential Value Scores, Round 2: 2.5
  Differential Value Scores, Round 3: 1
  Biostatic efficacy regarding Gram-negative bacteria compared with the DCHA standard: worse biostatic capabilities than the DCHA control

## CC(C)CCCC(C)N (stereo not shown) [Example 1, 1,5-dimethylhexylamine]
[1]
  Differential Value Scores, Average: 4.3
  Differential Value Scores, Round 1: 4.5
  Differential Value Scores, Round 2: 4
  Differential Value Scores, Round 3: 4.5

## CCCCC(CC)CN (stereo not shown) [Example 2, 2-ethylhexylamine]
[1]
  Differential Value Scores, Average: 4.3
  Differential Value Scores, Round 1: 4
  Differential Value Scores, Round 2: 4.5
  Differential Value Scores, Round 3: 4.5

## CCCCCCCN [Example 3, Heptylamine]
[1]
  Differential Value Scores, Average: 4.2
  Differential Value Scores, Round 1: 4
  Differential Value Scores, Round 2: 4
  Differential Value Scores, Round 3: 4.5
  Biostatic efficacy regarding Gram-negative bacteria compared with the DCHA standard: better biostatic performance than the DCHA control

## NC1CCC(N)CC1 (stereo not shown) [Example 4, 1,4-cyclohexanediamine]
[1]
  Differential Value Scores, Average: 3.7
  Differential Value Scores, Round 1: 4
  Differential Value Scores, Round 2: 4.5
  Differential Value Scores, Round 3: 2.5
  Biostatic efficacy regarding Gram-negative bacteria compared with the DCHA standard: better biostatic performance than the DCHA standard

## CC(CN)CCCN (stereo not shown) [Example 5, Methylpentamethylene diamine]
[1]
  Differential Value Scores, Average: 3.3
  Differential Value Scores, Round 1: 2.5
  Differential Value Scores, Round 2: 4.5
  Differential Value Scores, Round 3: 3
  Biostatic efficacy regarding Gram-negative bacteria compared with the DCHA standard: outperformed DCHA
[2]; [8]
  Mixed Gram Negative Bacteria count: ~1 × 10^6 cfu/ml
[2]; Sample 1, Day 2
  Mixed Gram Negative Bacteria count: <2 cfu/ml
[2]; Sample 1, Day 7
  Mixed Gram Negative Bacteria count: <2 cfu/ml
[2]; Sample 1, Day 9
  Mixed Gram Negative Bacteria count: <2 cfu/ml
[2]; Sample 1, Day 14
  Mixed Gram Negative Bacteria count: <2 cfu/ml
[2]; Sample 1, Day 16
  Mixed Gram Negative Bacteria count: <2 cfu/ml
[2]; Sample 1, Day 21
  Mixed Gram Negative Bacteria count: <2 cfu/ml
[2]; Sample 1, Day 23
  Mixed Gram Negative Bacteria count: <2 cfu/ml
[2]; [9]
  Mixed Gram Negative Bacteria count: ~1 × 10^6 cfu/ml
[2]; Sample 2, Day 2
  Mixed Gram Negative Bacteria count: <2 cfu/ml
[2]; Sample 2, Day 7
  Mixed Gram Negative Bacteria count: <2 cfu/ml
[2]; Sample 2, Day 9
  Mixed Gram Negative Bacteria count: <2 cfu/ml
[2]; Sample 2, Day 14
  Mixed Gram Negative Bacteria count: <2 cfu/ml
[2]; Sample 2, Day 16
  Mixed Gram Negative Bacteria count: <2 cfu/ml
[2]; Sample 2, Day 21
  Mixed Gram Negative Bacteria count: <2 cfu/ml
[2]; Sample 2, Day 23
  Mixed Gram Negative Bacteria count: <2 cfu/ml
[3]; [8]
  Mycobacterium immunogenum count: ~1 × 10^5 cfu/ml
[3]; Sample 1, Day 2
  Mycobacterium immunogenum count: <2 cfu/ml
[3]; Sample 1, Day 7
  Mycobacterium immunogenum count: <2 cfu/ml
[3]; Sample 1, Day 9
  Mycobacterium immunogenum count: <2 cfu/ml
[3]; Sample 1, Day 14
  Mycobacterium immunogenum count: <2 cfu/ml
[3]; Sample 1, Day 16
  Mycobacterium immunogenum count: <2 cfu/ml
[3]; Sample 1, Day 21
  Mycobacterium immunogenum count: <2 cfu/ml
[3]; Sample 1, Day 23
  Mycobacterium immunogenum count: <2 cfu/ml
[3]; [9]
  Mycobacterium immunogenum count: ~1 × 10^5 cfu/ml
[3]; Sample 2, Day 2
  Mycobacterium immunogenum count: <2 cfu/ml
[3]; Sample 2, Day 7
  Mycobacterium immunogenum count: <2 cfu/ml
[3]; Sample 2, Day 9
  Mycobacterium immunogenum count: <2 cfu/ml
[3]; Sample 2, Day 14
  Mycobacterium immunogenum count: <2 cfu/ml
[3]; Sample 2, Day 16
  Mycobacterium immunogenum count: <2 cfu/ml
[3]; Sample 2, Day 21
  Mycobacterium immunogenum count: <2 cfu/ml
[3]; Sample 2, Day 23
  Mycobacterium immunogenum count: <2 cfu/ml

## CCCCCCCCN [Example 6, Octylamine]
[1]
  Biostatic efficacy regarding Gram-negative bacteria compared with the DCHA standard: surpassed the DCHA standard; also recorded: better biostatic performance than the DCHA control

## NCCN(CCN)CCN [Example 7, Tris(2-aminoethyl)amine]
[1]; [4]
  Amount of new Gram-negative bacteria colonies: 10^3
[1]; [5]
  Amount of new Gram-negative bacteria colonies: 10^2
[1]; [6]
  Amount of new Gram-negative bacteria colonies: 10^2
[1]; [7]
  Amount of new Gram-negative bacteria colonies: 10^2
[1]
  Biostatic efficacy regarding Gram-negative bacteria compared with the DCHA standard: surpassed the DCHA standard
